Biological target: T1, rat SCD (Rattus norvegicus, UniProt P07308)
T1 construct: rat liver microsomes (RLMs) isolated from rats fed a […] to induce SCD expression; from tissue; host or cells: rat liver microsomes (SCD-induced by diet); assay run at PureHoney Technologies
T1 sequence (P07308 1-358): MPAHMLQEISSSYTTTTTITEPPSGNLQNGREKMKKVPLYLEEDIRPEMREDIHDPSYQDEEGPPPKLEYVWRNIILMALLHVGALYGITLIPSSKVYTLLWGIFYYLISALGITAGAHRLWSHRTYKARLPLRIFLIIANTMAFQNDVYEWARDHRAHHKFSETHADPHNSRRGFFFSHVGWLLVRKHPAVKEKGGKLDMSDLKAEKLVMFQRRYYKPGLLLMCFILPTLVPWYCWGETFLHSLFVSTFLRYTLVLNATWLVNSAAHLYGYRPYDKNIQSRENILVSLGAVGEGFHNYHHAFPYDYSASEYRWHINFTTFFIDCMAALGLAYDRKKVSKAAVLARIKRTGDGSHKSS
Experiment: SCD enzyme assay in SCD-induced rat liver microsomes (RLM)
Format: biochemical
Settings: C17:0-CoA substrate, Rapid-Fire mass spectrometry
Protocol: The SCD biochemical assay has been described previously (Vincent et al., 2018). In brief, SCD-induced rat liver microsomes (RLM) were isolated from […] fed a high-carbohydrate, low-fat diet for 5 days. RLM were then used in an optimized biochemical assay using C17:0-CoA as a substrate (Avanti Lipids, #870,717) and Rapid-Fire mass spectrometry to quantify conversion to C17:1-CoA. The RLM assay was performed at PureHoney Technologies (Billerica, MA).
An iterative medicinal chemistry campaign identified YTX-7739 as a SCD inhibitor that reduced conversion of saturated to unsaturated fatty acids (Fig. 1A). The potency of YTX-7739 in inhibiting SCD activity was initially assessed in rat liver microsomes (RLMs) isolated from rats fed a […] to induce SCD expression. RLMs were then used in conjunction with a synthetic C17:0-CoA SCD substrate and rapid-fire mass spectrometry to assess enzyme activity.
Fig. 1 Characterization of in vitro properties of YTX-7739. A SCD reaction converting CoA-linked saturated to monounsaturated fatty acids of 16 (palmitoleic acid) or 18 (oleic acid) carbons in length. […] B YTX-7739 and a reference SCD inhibitor (CAY10566) was tested in a biochemical assay using SCD-induced RLM and C17:0-CoA with Rapid-Fire mass spectrometry as an analytical readout. […] The calculated IC50 values are inset. […]

IC50: 1.1 nM
SMILES: Cc1nnc(-c2ccc(N3CCC(Oc4cc(F)ccc4Cl)CC3)nn2)o1 [CAY10566]

From publication PMC9015998, “Non-clinical Pharmacology of YTX-7739: a Clinical Stage Stearoyl-CoA Desaturase Inhibitor Being Developed for Parkinson’s Disease” (Molecular Neurobiology, 2022)
